Results published in patent US10646478B2, “Methods for treatment of melanoma” (CHILDREN'S MEDICAL CENTER CORPORATION, priority 2011, dated 2020).

Tests used:
[1] = system: neural crest stem cells (NCSCs) from fetal (E14.5) rat gut; assay: Rat neural crest stem cell assays (self-renewal, colony size, differentiation); type: cell-based
Protocol: Enteric NCSCs from the fetal (E14.5) rat gut were isolated using flow cytometry to select the 1%-2% of cells expressing the highest levels p75 and α4 integrin as previously described^9. Cells were plated at clonal density in two wells/treatment and cultured in self-renewal medium for 8 days in LEF, A771726 or the vehicle (DMSO) followed by differentiation medium+/−LEF, A771726 or DMSO for 6 days. Cultures were fixed in 4% PFA then stained with antibodies against peripherin, GFAP, and SMA to identify neurons (N), glia (G) and myofibroblasts (M) respectively (U=unstained cells). A total of 3 to 4 independent experiments were performed, and differences measured by ANOVA followed by Bonferonni posthoc comparison. Self-renewal medium contains: DMEM-low glucose, 15% Chick Embryo Extract (CEE), Penn/Strep (P/S), 1% N2 supplement, 2% B27 supplement, 110 nM Retinoic Acid, 50 μM 2-mercaptoethanol 20 ng/ml bFGF, and 20 ng/ml IGF-1. Differentiation medium is the same except it contains 1% CEE, 10 ng/ml bFGF and no IGF-1. Differences between groups were calculated using ANOVA followed by posthoc Sheffe.
Dissociated fetal rat gut cells were plated at clonal density in non-adherent conditions in self-renewal medium with LEF, a77 or DMSO for 10 days^10. Three to five primary neurospheres per treatment were individually re-plated in adherent conditions with LEF, a77 or DMSO and after three days were dissociated into a single cell suspension using trypsin and collagenase IV. Dissociated cells from each neurosphere were re-plated in non-adherent conditions without LEF or a77 and after 10 days, the number of secondary neurospheres were counted and compared. To assess the number of multipotent primary and secondary neurospheres, a subset of neurospheres were plated adherently for 8 days in self-renewal medium followed by 6 days in differentiation medium. Cultures were fixed in 4% PFA and stained with antibodies against peripherin, GFAP, and SMA to identify neurons (N), glia (G) and myofibroblasts (M) respectively. A total of 5 independent experiments were analyzed, and the number of multipotent secondary neurospheres on a given day are normalized to the DMSO control wells, and differences calculated by ANOVA.

human DHODH = human DHODH (Homo sapiens, UniProt Q02127); assay: In vitro DHODH assay (DCIP reduction), human enzyme; type: biochemical; conditions: FIG. 11
Sequence of human DHODH (Q02127 whole entry): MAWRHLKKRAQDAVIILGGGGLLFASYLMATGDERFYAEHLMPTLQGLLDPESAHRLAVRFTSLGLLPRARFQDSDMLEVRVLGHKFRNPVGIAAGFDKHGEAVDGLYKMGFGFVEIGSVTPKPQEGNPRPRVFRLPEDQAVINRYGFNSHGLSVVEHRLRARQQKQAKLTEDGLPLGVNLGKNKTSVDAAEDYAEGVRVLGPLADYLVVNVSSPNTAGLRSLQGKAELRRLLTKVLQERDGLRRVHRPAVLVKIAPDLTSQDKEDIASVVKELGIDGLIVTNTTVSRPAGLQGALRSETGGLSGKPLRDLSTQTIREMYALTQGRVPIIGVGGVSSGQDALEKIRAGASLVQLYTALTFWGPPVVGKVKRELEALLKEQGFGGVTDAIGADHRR
Protocol: (§1) The DHODH activity assay monitored the reduction of 2,6-dichloroindophenol (DCIP) and was conducted in 50 μl of 100 mM HEPES (pH 8.0) containing 150 mM NaCl, 5% glycerol, 0.05% Triton X-100, 175 μM L-DHO, 18 μM decylubiquinone (CoQD), and 95 μM DCIP, arrayed in a 384-well format. The concentrations of enzymes used were as follows: P. falciparum 12.5 nM, human 7 nM. Following a 20 minute incubation at room temperature the absorbance was measured at 600 nm (Envision, PerkinElmer).

P. falciparum DHODH = biological target: T1, P. falciparum DHODH (Plasmodium falciparum, UniProt Q08210); assay: In vitro DHODH assay (DCIP reduction), malarial enzyme; type: biochemical; conditions: FIG. 11
T1 sequence (Q08210 24-569): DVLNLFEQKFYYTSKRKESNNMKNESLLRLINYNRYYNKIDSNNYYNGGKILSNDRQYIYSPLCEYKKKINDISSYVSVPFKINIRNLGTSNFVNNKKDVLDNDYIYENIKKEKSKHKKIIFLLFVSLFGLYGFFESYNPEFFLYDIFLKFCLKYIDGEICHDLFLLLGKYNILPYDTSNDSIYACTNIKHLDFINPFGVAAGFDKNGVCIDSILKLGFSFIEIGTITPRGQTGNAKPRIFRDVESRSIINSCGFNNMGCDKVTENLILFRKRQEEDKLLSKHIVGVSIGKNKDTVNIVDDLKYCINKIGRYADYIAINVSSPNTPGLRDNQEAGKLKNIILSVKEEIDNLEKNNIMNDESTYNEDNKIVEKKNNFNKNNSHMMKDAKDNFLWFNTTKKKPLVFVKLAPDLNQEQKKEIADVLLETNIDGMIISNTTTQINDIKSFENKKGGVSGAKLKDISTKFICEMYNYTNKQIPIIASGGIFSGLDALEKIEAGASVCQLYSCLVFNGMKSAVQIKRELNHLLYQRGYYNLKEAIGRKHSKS
Protocol: as §1

ventral melanocytes = assay: Ventral melanocytes in Xenopus embryos; type: in vivo; conditions: stage 38 embryos
[2] = system: crestin+ neural crest progenitors; assay: In situ hybridization (ISH) for crestin in zebrafish embryos (chemical screen for suppressors of neural crest development); type: in vivo; conditions: for rescue of neural crest population (crestin ISH): in the presence of leflunomide, A771726 or DH #1
Protocol: The screen was performed essentially as previously described^31. In brief, WT embryos were collected, staged and then plated at a density of 10 embryos per well in a […] tissue culture plate in 200 ul of E3 water. At 50% epiboly, 100 ul of a 3× chemical stock was added to each well using a Hamilton liquid handling robot, yielding a final 1× concentration. For the majority of the chemicals in the library, this yielded a concentration of ˜33 uM. The libraries used were the BIOMOL 480, Sigma LOPAC 1280, and selected additional compounds obtained through the Children's Hospital Boston Chemical Screening facility. Compounds known to affect pigmentation in Xenopus were obtained from a screen previously described^32, 33. After treatment, embryos were rinsed in E3 water, pronase treated to remove chorions, washed 4× in E3 and 1× in PBT, and then fixed in 4% PFA for 24 hours. Fixed embryos were changed to 100% methanol 24 h later, and kept until the time of ISH.
Embryos underwent automated ISH using a Biolane HTI robot with a crestin riboprobe as previously described^31. All wells were manually scored by eye, assigning a score within a range of 1 (no crestin staining) to 3 (no change in crestin) to 5 (marked increase in crestin). Note was also taken of chemicals that affected migratory patterns in both A-P and D-V directions, and overall morphology. […] All hits were validated in larger, independent clutches of 100-200 embryos using chemicals obtained from independent suppliers.

A375 melanoma cells = assay: In vivo xenograft study of A375 cells in nude mice; set-up: species or system mouse; conditions: daily i.p.; PLX4720 2.5 mg/kg, Leflunomide 7.5 mg/kg; DMSO 7.4+/−1.3-fold
Protocol: The A375 cell line was chosen for xenografts based on prior experience with PLX4720 in this line. Cells were grown to 60-70% confluence, trypsinized and 3.5×10^5 cells were transplanted into the right flank of nude mice in a volume of 200 ul. […] Tumors were measured with digital calipers on day 4, 7 and 12 and growth rate was compared to the tumor size on day 0. Growth rates were compared between DMSO, PLX, LEF or […] using ANOVA with repeated measures to identify significant interactions. For the day 12 data, differences between the groups were compared using ANOVA followed by posthoc Tukey's least-squared difference.

[3] = system: pancreatic cancer (8988, PANC1) and breast cancer (MDA-MD-231) cell lines; assay: In vitro proliferation assay in non-melanoma cell lines; type: cell-based, human; conditions: BRAF WT; 8988, PANC1, MDA-MD-231
Protocol: (§2) Human melanoma cell lines (A375, RPMI7951, Hs.294T, MAMLE-3M) were obtained from the American Type Culture Collection. The 8988 cell line was provided by Alec Kimmelman at Dana Farber, and the PANC1 and MDA-231-MB lines were provided by Rania Hartouche at Harvard. Cells were cultured in DMEM/10% FCS at 37 C, 5% CO2. For proliferation assays, 96-well clear bottom plates were used to plate cells at a density of 5,000 cells/well (RPMI7951 and A375) or 10,000 cells/well (MAMLE-3M-3M and Hs.294T) in 100 ul containing indicated concentrations of A771726 or PLX4720 or DMSO. All conditions were tested in triplicate. Media was changed at day 2, and proliferation rate was measured at day 4 using the CellTiterGlo assay kit (Promega). All values are expressed are the % of luciferase relative to the DMSO control well. Differences between groups were statistically analyzed using a generalized linear ANOVA model taking into account factors of PLX4720, A771726 and dose. IC50's were calculated using a log-logistic model.

[4] = system: human melanoma cell lines (A375, Hs.294t, RPMI7951); assay: In vitro melanoma proliferation assay (CellTiterGlo); type: cell-based; conditions: RPMI7951 (BRAFV600E)
Protocol: as §2

`C/C(O)=C(\C#N)C(=O)Nc1ccc(C(F)(F)F)cc1` [A771726, teriflunomide] was tested, and the “colony size reduced compared to controls” value [1] was 24% and the “number of self-renewing NCSCs from primary stem cell colonies” value [1] was 35+/−6.16 % of controls.

For `O=C(O)c1cc(-c2ccc(-c3ccc(-c4cc(C(=O)O)c5cc(Cl)ccc5n4)cc3)cc2)nc2ccc(Cl)cc12` [NSC210627], the “inhibition of purified human DHODH” value (human DHODH) was “strong inhibition of both enzymes, at lower concentrations in the human versus malarial forms”, the “inhibition of purified malarial DHODH” value (P. falciparum DHODH) was “strong inhibition of both enzymes” and the “ventral melanocytes in Xenopus embryos” value (ventral melanocytes) was “reduction of ventral melanocytes”. For the same molecule, the “crestin expression by ISH” value ([2]; zebrafish embryos, 50% epiboly to 24 hpf) was “strongly abrogated expression of crestin”.

`CCCS(=O)(=O)Nc1ccc(F)c(C(=O)c2c[nH]c3ncc(Cl)cc23)c1F` [PLX4720] was tested, and the “tumor growth at 12 days post-treatment” value (A375 melanoma cells) was 5.7+/−0.16 fold, the “proliferation of non-melanoma cell lines” value [3] was “no effect” and the “sensitivity of RPMI7951 to the BRAF inhibitor” value [4] was “significantly less sensitive than the other tested cell lines”.

In the case of `C[C@@]1(CO)[C@H](O)CC[C@@]2(C)[C@H]1CC[C@H]1C[C@@H]3C[C@@]12CC[C@]3(O)CO` [aphidicolin], the “rescue of neural crest population (crestin ISH)” value (“rescue” for short) [2] is reported as “rescue of the neural crest population”.

For `CCCCCCCCCCC1=C(C)C(=O)C(OC)=C(OC)C1=O` [decylubiquinone], the “rescue” value [2] was “rescue of the neural crest population”.

For `CC(=O)[C@H]1CC[C@H]2[C@@H]3CCC4=CC(=O)CC[C@]4(C)[C@H]3CC[C@]12C` [progesterone], the “rescue” value [2] was “rescue of the neural crest population”.
